From patent US6355799B1, “Substituted benzene compounds, process for their preparation, and herbicidal and defoliant compositions containing them” (ISK Americas Incorporated, priority 1997, dated 2002)

How the values were obtained:
Assay type in all cases: in vivo
[1] = test system: redroot pigweed (Amaranthus retroflexus, AMARE); assay: Pre-emerge test, greenhouse herbicide activity screening; conditions: phytotoxicity rating 0-100, 14 days after application
Procedure, shortened: (§1)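 Rating: 0–100 visual injury, 14 DAA. Application: acetone, 187 l/ha, 15–1000 g ai/ha, flat-fan track sprayer with nozzle 40–45 cm above soil or canopy. Post-emerge runs used 0.25% v/v surfactant on 2–3 leaf plants.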

[2] = test system: barnyardgrass (Echinochloa crus-galli, ECHCG); assay: as above; conditions: phytotoxicity rating 0-100, 14 days after application
Procedure, shortened: (§2)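 Sandy loam pots; pre-emerge: sown 1 d pre-spray, surface-watered after, then bottom-watered. Post-emerge: sown 8–21 d before, 2–3 leaf stage, + 0.25% v/v NIS, bottom-watered. Acetone, 187 l/ha track spray, 15–1000 g ai/ha. 0–100 injury score, day 14.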

[3] = test system: common ragweed (Ambrosia artemisizfolia L., AMBEL); assay: as above; conditions: phytotoxicity rating 0-100, 14 days after application
Procedure, shortened: as §2

[4] = test system: green foxtail (Setaria viridis, SETVI); assay: as above; conditions: phytotoxicity rating 0-100, 14 days after application
Procedure, shortened: as §2

[5] = test system: ivyleaf morningglory (Ipomoea hederacea, IPOHE); assay: as above; conditions: phytotoxicity rating 0-100, 14 days after application
Procedure, shortened: as §2

[6] = test system: johnsongrass (Sorghum halepense, SORHA); assay: as above; conditions: phytotoxicity rating 0-100, 14 days after application
Procedure, shortened: as §2

[7] = test system: lambsquarters (Chenopodium album, CHEAL); assay: as above; conditions: phytotoxicity rating 0-100, 14 days after application
Procedure, shortened: as §2

[8] = test system: large crabgrass (Digitaria sanguinalis, DIGSA); assay: as above; conditions: phytotoxicity rating 0-100, 14 days after application
Procedure, shortened: as §2

[9] = test system: sicklepod (Cassia obtusifolia, CASOB); assay: as above; conditions: phytotoxicity rating 0-100, 14 days after application
Procedure, shortened: as §2

[10] = test system: velvetleaf (Abutilon theophrasti, ABUTH); assay: as above; conditions: phytotoxicity rating 0-100, 14 days after application
Procedure, shortened: as §2

[11] = test system: field corn (Zea mays L., var. Dekalb 535, CORN); assay: Pre-emerge test, crop safety; conditions: crop damage rating 0-100, 14 days after application
Procedure, shortened: as §1

[12] = test system: upland rice (Oryza sp., var. Tebonnet, RICE); assay: Pre-emerge test, crop safety; conditions: crop damage rating 0-100, 14 days after application
Procedure, shortened: as §1

[13] = test system: barnyardgrass (Echinochloa crus-galli, ECHCG); assay: Post-emerge test, greenhouse herbicide activity screening; conditions: post-emerge, 14 days after application, rating scale 0-100
Procedure, shortened: (§3)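 Each test used a mechanized track sprayer delivering 187 l/ha of acetone solution at 15–1000 g ai/ha. Post-emerge foliage at 2–3 leaves was treated with added 0.25% v/v non-ionic surfactant and bottom-watered only. Injury was assessed on day 14, where 100 means total kill.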

[14] = test system: common ragweed (Ambrosia artemisizfolia L., AMBEL); assay: as above; conditions: post-emerge, 14 days after application, rating scale 0-100
Procedure, shortened: as §3

[15] = test system: green foxtail (Setaria viridis, SETVI); assay: as above; conditions: post-emerge, 14 days after application, rating scale 0-100
Procedure, shortened: as §3

[16] = test system: ivyleaf morningglory (Ipomoea hederacea, IPOHE); assay: as above; conditions: post-emerge, 14 days after application, rating scale 0-100
Procedure, shortened: as §3

[17] = test system: johnsongrass (Sorghum halepense, SORHA); assay: as above; conditions: post-emerge, 14 days after application, rating scale 0-100
Procedure, shortened: as §3

[18] = test system: lambsquarters (Chenopodium album, CHEAL); assay: as above; conditions: post-emerge, 14 days after application, rating scale 0-100
Procedure, shortened: as §3

[19] = test system: large crabgrass (Digitaria sanguinalis, DIGSA); assay: as above; conditions: post-emerge, 14 days after application, rating scale 0-100
Procedure, shortened: as §3

[20] = test system: redroot pigweed (Amaranthus retroflexus, AMARE); assay: as above; conditions: post-emerge, 14 days after application
Procedure, shortened: as §3

[21] = test system: sicklepod (Cassia obtusifolia, CASOB); assay: as above; conditions: post-emerge, 14 days after application, rating scale 0-100
Procedure, shortened: as §3

[22] = test system: velvetleaf (Abutilon theophrasti, ABUTH); assay: as above; conditions: post-emerge, 14 days after application, rating scale 0-100
Procedure, shortened: as §3

[23] = test system: field corn (Zea mays L., var. Dekalb 535, CORN); assay: Post-emerge test, crop safety; conditions: post-emerge, 14 days after application, rating scale 0-100
Procedure, shortened: as §2

[24] = test system: upland rice (Oryza sp., var. Tebonnet, RICE); assay: Post-emerge test, crop safety; conditions: post-emerge, 63 g ai/ha, 14 days after application, rating scale 0-100
Procedure, shortened: as §2

2-(4-chloro-3-ethoxy-6-fluoro-2-naphthoylamidophenyl)-1-methyl-6-trifluoromethyl-2,4(1H, 3H)-pyrimidinedione [Compound 2-196]
Pre-emerge Herbicidal Activity AMARE ([1]; 63 g ai/ha): 100
Pre-emerge Herbicidal Activity AMARE ([1]; 250 g ai/ha): 100
Pre-emerge Herbicidal Activity ECHCG ([2]; 63 g ai/ha): 40
Pre-emerge Herbicidal Activity ECHCG ([2]; 250 g ai/ha): 85
Pre-emerge Herbicidal Activity AMBEL ([3]; 63 g ai/ha): 30
Pre-emerge Herbicidal Activity AMBEL ([3]; 250 g ai/ha): 90
Pre-emerge Herbicidal Activity SETVI ([4]; 63 g ai/ha): 90
Pre-emerge Herbicidal Activity SETVI ([4]; 250 g ai/ha): 100
Pre-emerge Herbicidal Activity IPOHE ([5]; 63 g ai/ha): 20
Pre-emerge Herbicidal Activity IPOHE ([5]; 250 g ai/ha): 70
Pre-emerge Herbicidal Activity SORHA ([6]; 63 g ai/ha): 10
Pre-emerge Herbicidal Activity SORHA ([6]; 250 g ai/ha): 20
Pre-emerge Herbicidal Activity CHEAL ([7]; 63 g ai/ha): 100
Pre-emerge Herbicidal Activity CHEAL ([7]; 250 g ai/ha): 100
Pre-emerge Herbicidal Activity DIGSA ([8]; 63 g ai/ha): 90
Pre-emerge Herbicidal Activity DIGSA ([8]; 250 g ai/ha): 100
Pre-emerge Herbicidal Activity CASOB ([9]; 63 g ai/ha): 0
Pre-emerge Herbicidal Activity CASOB ([9]; 250 g ai/ha): 60
Pre-emerge Herbicidal Activity ABUTH ([10]; 63 g ai/ha): 100
Pre-emerge Herbicidal Activity ABUTH ([10]; 250 g ai/ha): 100
Pre-emerge Herbicidal Activity CORN ([11]; 63 g ai/ha): 0
Pre-emerge Herbicidal Activity CORN ([11]; 250 g ai/ha): 0
Pre-emerge Herbicidal Activity RICE ([12]; 63 g ai/ha): 20
Pre-emerge Herbicidal Activity RICE ([12]; 250 g ai/ha): 50
phytotoxicity rating ECHCG ([13]; 63 g ai/ha): 10
phytotoxicity rating ECHCG ([13]; 250 g ai/ha): 10
phytotoxicity rating AMBEL ([14]; 63 g ai/ha): 100
phytotoxicity rating AMBEL ([14]; 250 g ai/ha): 90
phytotoxicity rating SETVI ([15]; 63 g ai/ha): 30
phytotoxicity rating SETVI ([15]; 250 g ai/ha): 20
phytotoxicity rating IPOHE ([16]; 63 g ai/ha): 90
phytotoxicity rating IPOHE ([16]; 250 g ai/ha): 100
phytotoxicity rating SORHA ([17]; 63 g ai/ha): 10
phytotoxicity rating SORHA ([17]; 250 g ai/ha): 10
phytotoxicity rating CHEAL ([18]; 63 g ai/ha): 100
phytotoxicity rating CHEAL ([18]; 250 g ai/ha): 100
phytotoxicity rating DIGSA ([19]; 63 g ai/ha): 10
phytotoxicity rating DIGSA ([19]; 250 g ai/ha): 20
phytotoxicity rating AMARE ([20]; 63 g ai/ha, rating scale 0-100 (0 no damage, 100 complete death)): 100
phytotoxicity rating AMARE ([20]; 250 g ai/ha, rating scale 0-100): 100
phytotoxicity rating CASOB ([21]; 63 g ai/ha): 100
phytotoxicity rating CASOB ([21]; 250 g ai/ha): 100
phytotoxicity rating ABUTH ([22]; 63 g ai/ha): 100
phytotoxicity rating ABUTH ([22]; 250 g ai/ha): 100
phytotoxicity rating CORN (crop damage) ([23]; 63 g ai/ha): 10
phytotoxicity rating CORN (crop damage) ([23]; 250 g ai/ha): 15
phytotoxicity rating RICE (crop damage) [24]: 30
